The values that follow come from ChEMBL document CHEMBL3244122, “Symbiotic approach to drug design: antihypertensive beta-adrenergic blocking agents” (J Med Chem, 1979).

For data set [1], the system named is Rattus norvegicus. The data set is described as follows: Antihypertensive activity in spontaneously hypertensive Wistar-Okamoto rat assessed as duration of action at 20 mg/kg, po. Type of data set: functional.
The subject of data set [2] is Rattus norvegicus. Briefly: Antihypertensive activity in spontaneously hypertensive Wistar-Okamoto rat assessed as duration of action at 5 mg/kg, ip. Type of data set: functional. To be noted: route intraperitoneal.
Data set [3] deals with Rattus norvegicus. The data set is described as follows: Antihypertensive activity in spontaneously hypertensive Wistar-Okamoto rat assessed as maximal fall in mean arterial pressure at 20 mg/kg, po. Type of data set: functional, Artery.
The test system of data set [4] is Rattus norvegicus. Briefly: Antihypertensive activity in spontaneously hypertensive Wistar-Okamoto rat assessed as maximal fall in mean arterial pressure at 5 mg/kg, ip. To be noted: route intraperitoneal. The data set is classed as functional, Artery.
Data set [5] deals with Canis familiaris. Briefly: In vivo beta-adrenergic receptor blockade in iv dosed anesthetized dog assessed as inhibition of isoproterenol-induced hypotension. To be noted: Canis lupus familiaris. The data set is classed as functional.
Data set [6] deals with Canis familiaris. Briefly: Vasodilatory activity in anesthetized dog assessed as increase in iliac blood flow […] measured after 2000 ug/kg, iv beta-adrenergic receptor blocker timolol administration. Type of data set: functional, Canis lupus familiaris, Artery.
Data set [7] relates to Rattus norvegicus. Briefly: Antihypertensive activity in spontaneously hypertensive Wistar-Okamoto rat assessed as maximal fall in mean arterial pressure at 20 mg/kg, ip. The data set is classed as functional, Artery. To be noted: route intraperitoneal.
Data set [8] concerns Canis familiaris. Briefly: Vasodilatory activity in anesthetized dog assessed as increase in iliac blood flow […] ia. Type of data set: functional, Canis lupus familiaris, Artery.
The test system of data set [9] is Canis familiaris. The data set is described as follows: In vivo beta-adrenergic receptor blockade in iv dosed anesthetized dog assessed as inhibition of isoproterenol-induced tachycardia. Type of data set: functional. To be noted: Canis lupus familiaris.
Data set [10] has as its system Rattus norvegicus. The data set is described as follows: Antihypertensive activity in spontaneously hypertensive Wistar-Okamoto rat assessed as duration of action at 20 mg/kg, ip. The data set is classed as functional. As to conditions: route intraperitoneal.
In data set [11] the test system is Oryctolagus cuniculus. The data set is described as follows: Toxicity in rabbit assessed as teratogenicity measured after high drug dose administration. Type of data set: organism-based. To be noted: in vivo.
The subject of data set [12] is Rattus norvegicus. Briefly: Antihypertensive activity in po dosed spontaneously hypertensive Wistar-Okamoto rat assessed as maximal fall in mean arterial pressure. The data set is classed as functional, organism-based. To be noted: Artery.

In general, ED50 refers to the dose at which the effect has come halfway, by size or by number of responders. Consider `CC(C)NCC(O)COc1ncccc1C#N` (configuration not stated), for which the Time in [1] is 4 h; in data set [2], 2 h; in [10] it was 8 h. In addition, the Activity in data set [3] turned out to be 40 mmHg; in data set [4] it was 26 mmHg; in [6] it was 48 mL/min; in data set [7], 59 mmHg; in data set [8], 59 mL/min. Moreover, the ED50 in data set [5] came to 0.03 mg/kg; in data set [9], 0.005 mg/kg.
Turning to `CC(C)(C)NCC(O)COc1ncccc1C#N` (configuration not stated), the Activity result in data set [11] is “Toxic”. In addition, the inhibition entry in data set [12] is “Dose-dependent effect”.
